Measurements reported in US20060252807A1, “Novel ortho-terphenyl inhibitors of p38 kinase and methods of treating inflammatory disorders” (Kalypsys, Inc., priority 2005, published 2006).

What follows are compounds tested against T1, active p38 alpha enzyme (Upstate Biotechnology) (Homo sapiens, UniProt Q16539) (assay: p38α biochemical assay (ATP turnover, luminescent detection, Cambrex PKlight)). Conditions: p38α kinase; Table 1 Biological Activity.
T1 construct: purchased Upstate Biotechnology
T1 sequence (Q16539 whole entry): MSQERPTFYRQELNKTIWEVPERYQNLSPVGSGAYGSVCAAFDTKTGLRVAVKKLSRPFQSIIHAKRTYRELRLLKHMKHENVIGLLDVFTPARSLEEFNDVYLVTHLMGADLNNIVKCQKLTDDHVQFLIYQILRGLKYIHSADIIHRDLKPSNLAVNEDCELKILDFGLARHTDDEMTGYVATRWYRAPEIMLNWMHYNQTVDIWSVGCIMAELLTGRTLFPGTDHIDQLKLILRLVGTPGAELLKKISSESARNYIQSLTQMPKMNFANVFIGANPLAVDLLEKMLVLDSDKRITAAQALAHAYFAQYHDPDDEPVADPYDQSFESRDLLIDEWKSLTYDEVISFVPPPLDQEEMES
How it was run: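 Compounds in DMSO are added to active p38 alpha with MapkapK2 whole protein and ATP at 1.4 uM final. Reactions then run for 2 hours at 30C. A luminescent reagent is added last to quantify total ATP consumed.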

IC50 [µM]	Structure (SMILES)
> 1	CCOc1ccccc1NCc1nc(-c2ccc(F)cc2)c(-c2nc(C(=O)NC(C)C)cs2)o1 [Example 1342]
> 1	CSc1ccccc1NCc1nc(-c2ccc(F)cc2)c(-c2nc(C(=O)NC(C)C)cs2)o1 [Example 1343]
> 1	Cc1c(Cl)cccc1NCc1nc(-c2ccc(F)cc2)c(-c2nc(C(=O)NC(C)C)cs2)o1 [Example 1344]
> 1	Cc1ccc(NCc2nc(-c3ccc(F)cc3)c(-c3nc(C(=O)NC(C)C)cs3)o2)cc1Cl [Example 1345]
> 1	CC(C)NC(=O)c1csc(-c2oc(CNc3cnc4ccccc4c3)nc2-c2ccc(F)cc2)n1 [Example 1346]
> 1	CC(C)NC(=O)c1csc(-c2oc(CNc3cc(F)c(F)cc3F)nc2-c2ccc(F)cc2)n1 [Example 1347]
> 1	CC(C)NC(=O)c1csc(-c2oc(CNc3ccccc3C(C)(C)C)nc2-c2ccc(F)cc2)n1 [Example 1348]
> 1	Cc1cccc(C(C)C)c1NCc1nc(-c2ccc(F)cc2)c(-c2nc(C(=O)NC(C)C)cs2)o1 [Example 1349]
> 1	CC(C)NC(=O)c1csc(-c2oc(CNc3ccc4ncsc4c3)nc2-c2ccc(F)cc2)n1 [Example 1350]
> 1	CC(=O)Nc1ccc(NCc2nc(-c3ccc(F)cc3)c(-c3nc(C(=O)NC(C)C)cs3)o2)cc1 [Example 1351]
> 1	CC(=O)Nc1ccc(NCc2nc(-c3ccc(F)cc3)c(-c3nc(C(=O)NC(C)C)cs3)o2)cn1 [Example 1352]
> 1	CC(C)NC(=O)c1csc(-c2oc(CNc3ccc4c(c3)OCCO4)nc2-c2ccc(F)cc2)n1 [Example 1353]
> 1	CC(C)NC(=O)c1csc(-c2oc(CNc3ccccc3-n3cccc3)nc2-c2ccc(F)cc2)n1 [Example 1354]
> 1	CC(C)NC(=O)c1csc(-c2oc(CNc3ccc(C(F)(F)F)cc3)nc2-c2ccc(F)cc2)n1 [Example 1355]
> 1	CC(C)NC(=O)c1csc(-c2oc(CNc3cccc(C(F)(F)F)c3)nc2-c2ccc(F)cc2)n1 [Example 1356]
> 1	CC(C)NC(=O)c1csc(-c2oc(CNc3ccc(Cl)c(Cl)c3)nc2-c2ccc(F)cc2)n1 [Example 1357]
> 1	Cc1cccc(C(C)(C)C)c1NCc1nc(-c2ccc(F)cc2)c(-c2nc(C(=O)NC(C)C)cs2)o1 [Example 1358]
> 1	CC(C)NC(=O)c1csc(-c2oc(CNc3ccc(N(C)C)cc3)nc2-c2ccc(F)cc2)n1 [Example 1359]
> 1	CC(C)NC(=O)c1csc(-c2oc(CNc3ccccc3-c3ccccc3)nc2-c2ccc(F)cc2)n1 [Example 1360]
> 1	CC(C)NC(=O)c1csc(-c2oc(CNc3ccc(OC(F)(F)F)cc3)nc2-c2ccc(F)cc2)n1 [Example 1361]
> 1	CC(C)NC(=O)c1csc(-c2oc(CNc3c(C(C)C)cccc3C(C)C)nc2-c2ccc(F)cc2)n1 [Example 1362]
> 1	CC(C)NC(=O)c1csc(-c2oc(CNc3ccc(F)cc3C(F)(F)F)nc2-c2ccc(F)cc2)n1 [Example 1363]
> 1	CC(C)NC(=O)c1csc(-c2oc(CNc3cc(C(F)(F)F)ccc3F)nc2-c2ccc(F)cc2)n1 [Example 1364]
> 1	CC(C)NC(=O)c1csc(-c2oc(CNc3ccc(F)c(C(F)(F)F)c3)nc2-c2ccc(F)cc2)n1 [Example 1365]
> 1	CCOc1ccc(OCC)c(NCc2nc(-c3ccc(F)cc3)c(-c3nc(C(=O)NC(C)C)cs3)o2)c1 [Example 1366]
> 1	CC(C)NC(=O)c1csc(-c2oc(CNc3cc(Cl)c(Cl)c(Cl)c3)nc2-c2ccc(F)cc2)n1 [Example 1367]

IC50 [µM]	Structure (SMILES)
> 1	CC(C)NC(=O)c1csc(-c2oc(CNc3ccccc3C(=O)c3ccccc3)nc2-c2ccc(F)cc2)n1 [Example 1368]
> 1	CC(C)NC(=O)c1csc(-c2oc(CNc3ccccc3COc3ccccc3)nc2-c2ccc(F)cc2)n1 [Example 1369]
> 1	COc1ccc(-c2ccccc2)cc1NCc1nc(-c2ccc(F)cc2)c(-c2nc(C(=O)NC(C)C)cs2)o1 [Example 1370]
> 1	CC(C)NC(=O)c1csc(-c2oc(CNc3ncccc3OCc3ccccc3)nc2-c2ccc(F)cc2)n1 [Example 1371]
> 1	CC(C)NC(=O)c1csc(-c2oc(CNc3cc(C(F)(F)F)ccc3C(F)(F)F)nc2-c2ccc(F)cc2)n1 [Example 1372]
> 1	CC(C)NC(=O)c1csc(-c2oc(CNc3cc(C(F)(F)F)cc(C(F)(F)F)c3)nc2-c2ccc(F)cc2)n1 [Example 1373]
> 1	CC(C)NC(=O)c1csc(-c2oc(CNc3ccc(C(F)(F)F)cc3C(F)(F)F)nc2-c2ccc(F)cc2)n1 [Example 1374]
> 1	CC(C)NC(=O)c1csc(-c2c(-c3ccc(F)cc3)noc2CNCCO)n1 [Example 1375]
> 1	CCOC(=O)N1CCC(NCc2onc(-c3ccc(F)cc3)c2-c2nc(C(=O)NC(C)C)cs2)CC1 [Example 1376]
> 1	COCCNCc1onc(-c2ccc(F)cc2)c1-c1nc(C(=O)NC(C)C)cs1 [Example 1377]
> 1	CC(C)NC(=O)c1csc(-c2c(-c3ccc(F)cc3)noc2CNC2CCCc3ccccc32)n1 (stereo not shown) [Example 1378]
> 1	COc1ccc(NCc2onc(-c3ccc(F)cc3)c2-c2nc(C(=O)NC(C)C)cs2)cc1OC [Example 1379]
> 1	CC(C)NC(=O)c1csc(-c2c(-c3ccc(F)cc3)noc2CN(CCC#N)Cc2ccccc2)n1 [Example 1381]
> 1	CNCc1onc(-c2ccc(F)cc2)c1-c1nc(C(=O)NC(C)C)cs1 [Example 1382]
> 1	CCNCc1onc(-c2ccc(F)cc2)c1-c1nc(C(=O)NC(C)C)cs1 [Example 1383]
> 1	C#CCNCc1onc(-c2ccc(F)cc2)c1-c1nc(C(=O)NC(C)C)cs1 [Example 1384]
≤ 1	CC(C)NC(=O)c1csc(-c2c(-c3ccc(F)cc3)noc2CNCC#N)n1 [Example 1385]
> 1	CC(C)NC(=O)c1csc(-c2c(-c3ccc(F)cc3)noc2CNC2CC2)n1 [Example 1386]
> 1	CC(C)NCc1onc(-c2ccc(F)cc2)c1-c1nc(C(=O)NC(C)C)cs1 [Example 1387]
> 1	CCCNCc1onc(-c2ccc(F)cc2)c1-c1nc(C(=O)NC(C)C)cs1 [Example 1388]
> 1	CC(C)NC(=O)c1csc(-c2c(-c3ccc(F)cc3)noc2CNCCN)n1 [Example 1389]
> 1	CC(C)NC(=O)c1csc(-c2c(-c3ccc(F)cc3)noc2CNCCC#N)n1 [Example 1390]
> 1	CC(C)NC(=O)c1csc(-c2c(-c3ccc(F)cc3)noc2CNC2CCC2)n1 [Example 1391]
> 1	CC(C)NC(=O)c1csc(-c2c(-c3ccc(F)cc3)noc2CNCC2CC2)n1 [Example 1392]
> 1	CCC(C)NCc1onc(-c2ccc(F)cc2)c1-c1nc(C(=O)NC(C)C)cs1 (stereo not shown) [Example 1393]
> 1	CC(C)CNCc1onc(-c2ccc(F)cc2)c1-c1nc(C(=O)NC(C)C)cs1 [Example 1394]

IC50 [µM]	Structure (SMILES)
> 1	CC(C)NC(=O)c1csc(-c2c(-c3ccc(F)cc3)noc2CNCCCO)n1 [Example 1395]
> 1	CC(C)NC(=O)c1csc(-c2c(-c3ccc(F)cc3)noc2CNC(C)CO)n1 (stereo not shown) [Example 1396]
> 1	CC(C)NC(=O)c1csc(-c2c(-c3ccc(F)cc3)noc2CNC2CCCC2)n1 [Example 1397]
> 1	CCCC(C)NCc1onc(-c2ccc(F)cc2)c1-c1nc(C(=O)NC(C)C)cs1 (stereo not shown) [Example 1398]
> 1	CCC(C)CNCc1onc(-c2ccc(F)cc2)c1-c1nc(C(=O)NC(C)C)cs1 (stereo not shown) [Example 1399]
> 1	CC(C)NC(=O)c1csc(-c2c(-c3ccc(F)cc3)noc2CNC(C)C(C)C)n1 (stereo not shown) [Example 1400]
> 1	CC(C)CCNCc1onc(-c2ccc(F)cc2)c1-c1nc(C(=O)NC(C)C)cs1 [Example 1401]
> 1	CC(C)NC(=O)c1csc(-c2c(-c3ccc(F)cc3)noc2CNCCN(C)C)n1 [Example 1402]
> 1	COCC(C)NCc1onc(-c2ccc(F)cc2)c1-c1nc(C(=O)NC(C)C)cs1 (stereo not shown) [Example 1403]
> 1	CCC(CO)NCc1onc(-c2ccc(F)cc2)c1-c1nc(C(=O)NC(C)C)cs1 (stereo not shown) [Example 1405]
> 1	CC(C)NC(=O)c1csc(-c2c(-c3ccc(F)cc3)noc2CNCCCCO)n1 [Example 1406]
> 1	CC(C)NC(=O)c1csc(-c2c(-c3ccc(F)cc3)noc2CNCc2ccco2)n1 [Example 1407]
> 1	CC(C)NC(=O)c1csc(-c2c(-c3ccc(F)cc3)noc2CNC2CCCCC2)n1 [Example 1408]
> 1	CC(C)NC(=O)c1csc(-c2c(-c3ccc(F)cc3)noc2CNCC2CCCO2)n1 (stereo not shown) [Example 1409]
> 1	CC(C)NC(=O)c1csc(-c2c(-c3ccc(F)cc3)noc2CNCCC(C)(C)C)n1 [Example 1410]
> 1	CC(C)CC(C)NCc1onc(-c2ccc(F)cc2)c1-c1nc(C(=O)NC(C)C)cs1 (stereo not shown) [Example 1411]
> 1	CC(C)NC(=O)c1csc(-c2c(-c3ccc(F)cc3)noc2CNC2CONC2=O)n1 (stereo not shown) [Example 1412]
> 1	CC(C)NC(=O)c1csc(-c2c(-c3ccc(F)cc3)noc2CNN2CCOCC2)n1 [Example 1413]
> 1	CC(C)NC(=O)c1csc(-c2c(-c3ccc(F)cc3)noc2CNC(CO)C(C)C)n1 (stereo not shown) [Example 1414]
> 1	CC(C)NC(=O)c1csc(-c2c(-c3ccc(F)cc3)noc2CNCc2ccccc2)n1 [Example 1415]
> 1	CC(C)NC(=O)c1csc(-c2c(-c3ccc(F)cc3)noc2CNCc2cccnc2)n1 [Example 1416]
> 1	CC(C)NC(=O)c1csc(-c2c(-c3ccc(F)cc3)noc2CNCc2ccccn2)n1 [Example 1417]
> 1	CC(C)NC(=O)c1csc(-c2c(-c3ccc(F)cc3)noc2CNCc2ccncc2)n1 [Example 1418]
> 1	CC(C)NC(=O)c1csc(-c2c(-c3ccc(F)cc3)noc2CNCc2cccs2)n1 [Example 1419]
